Experimental data as given in patent US20030180952A1, “Plant regeneration” (Sugar Research & Development Corporation, priority 2000, published 2003).

Columns and labels:
[1] = test system: inflorescence explants of sugarcane Q152; experiment: Regeneration from inflorescence explants; format: cell-based; conditions: Table 18 (b) ˜8 mm pieces of main floral axis placed laterally
Protocol: Table 18: Comparison of regeneration efficiency for different sugarcane explants. Explants were (a) 2-3 mm sections of main floral axis of inflorescence; (b) ˜8 mm sections of main floral axis placed laterally on the culture medium; (c) immature floral tissues dissociated from floral axis; and (d) whole 2-3 mm sections of inflorescence oriented “top down”. B4N10=4 μM BA+10 μM NAA; B4N40=4 μM BA+40 μM NAA; B4N60=4 μM BA+60 μM NAA; 2,4D14=14 μM 2,4,D. “Top down” orientation is as previously described. Shoot frequency legend: *1-2 shoots per explant; **3-10 shoots per explant; ***greater than […] shoots per explant.
Young bolting inflorescence “stalk” tissue enveloped in developing leaves (floral and leaf components) was harvested from above the apical meristem of Q152 or Q165 sugarcane plants. Transverse sections were made to produce 2-3 mm thin sections of the tissue.
Murashige & Skoog (MS) nutrient formulation supplemented with 30 g/L sucrose and 7.5 g/L Difco agar were used as the basal culture medium. Basal medium was enriched with different concentrations and combinations of (i) a cytokinin: 6-benzylaminopourine (BA) or kinetin (KIN); (ii) an auxin: α-napthaleneacetic acid (NAA); and (iii) anti-oxidants: citric acid (CA), ascorbic acid (AA), or dithiothreitol (DTT); depending on the experimental objective. […]

[2] = test system: leaf whorl explants of sugarcane cultivar Q165; experiment: Somatic embryogenesis / shoot regeneration in leaf whorl explants; format: cell-based; conditions: sugarcane leaf section cultures
Protocol: Table 19: Morphogenic response of leaf whorl explants (1.0-2.0 mm thick) of sugarcane cultivar Q165 after 8 weeks of culture on MS medium supplemented with chlorophenoxyacetic acid (CPA). Ten replicates, each with 10 explants placed in top down orientation, were maintained for each treatment. Explants were cultured under dark condition for the initial 5-6 weeks and then transferred to light (16 hr/day) for further shoot/planlet development. C=Mostly non-embroygenic callus was produced.
Table 20: Morphogenic response of leaf whorl explants (1.0-2.0 mm thick) of sugarcane cultivar Q165 after 8 weeks of culture on MS mediun supplemented with chlorophenoxyacefic acid (CPA). Ten replicates, each with 10 explants placed in top down orientation, were maintained for each treatment. All cultures received 16 hr light every day.
Table 21: Shoot regeneration in 1.0-2.0 mm thick leaf whorl explants of sugarcane cultivar Q165 after 8 weeks of culture on MS medium containing 6-benzyladenine (BA), α-naphthaleneacetic acid (NAA) and cholorophenoxyacetic acid (CPA). Ten replicates, each with 10 explants placed in top down orientation, were maintained for each treatment. All cultures received 16 hr light every day. […]

[3] = test system: leaf explants of sugarcane cultivar Q165; experiment: Shoot regeneration in leaf explants on MS medium with cytokinin and auxin; format: cell-based; conditions: at any given concentration of NAA; Tables 7, 8 and 10
Protocol: (§1) Top portions (about 30 cm) of shoots were cut and all leaves except the innermost 3-4 whorls were carefully removed under aseptic conditions. TS explants measuring about 1.0-2.0 mm or 5.0-6.0 mm in thickness were prepared by serial transverse sectioning of the lowermost 3-4 cm portion (just above the apical meristem) of the leaf spindle using a sharp surgical blade under sterile conditions.
Murashige & Skoog (MS) nutrient formulation supplemented with 30 g/L sucrose and 7.5 g/L Difco agar were used as the basal culture medium. Basal medium was enriched with different concentrations and combinations of (i) a cytokinin: 6-benzylaminopourine (BA) or kinetin (KIN); (ii) an auxin: α-napthaleneacetic acid (NAA); and (iii) anti-oxidants: citric acid (CA), ascorbic acid (AA), or dithiothreitol (DTT); depending on the experimental objective. The pH of the medium was adjusted to 5.7 before autoclaving for 20 minutes at 120° C. […]
Also, the concentrations of BA and NAA were varied in order to determine their influence upon shoot generation. […] The percentage of explants producing shoots were scored, as were the number of shoots produced per explant. […]

[4] = test system: leaf base sections of sorghum variety New Nugget; experiment: Somatic embryogenesis and shoot production in leaf base sections; format: cell-based, Sorghum bicolor L.; conditions: for regeneration with other hormone combinations: sorghum
Excerpt: Table 26: Effect of different levels of cholorophenoxyacetic acid (CPA) on somatic embryogenesis and shoot production in 1.0-2.0 mm thick leaf base sections of sorghum (Sorghum bicolor L.) variety New Nugget after 8 weeks of culture. Five to six replicates, each with 10 explants placed in “top down” orientation, were maintained for each treatment. All cultures received 16 hr light every day.
Table 27: Effect of different levels of cholorophenoxyacetic acid (CPA) and 6-benzyladenine (BA) on somatic embryogenesis and shoot production in 1.0-2.0 mm thick leaf base sections of sorghum (Sorghum bicolor l L.) variety New Nugget after 8 weeks of culture. Five to six replicates, each with 10 explants placed in “top down” orientation, were maintained for each treatment. All cultures received 16 hr light every day.
Young developing leaf sheaths (the innermost 3-4 whorls at the shoot tip) were used as the explant. Explants were preferably 1.0-2.0 mm thick transverse sections taken from the whorls. MS nutrient medium containing 3% sucrose and 7.5 g/L Davis J3 agar was used as the basal medium for all experiments. MS-based medium with several plant growth regulators was tested as a micropropagation medium.

[5] = test system: leaf explants of sugarcane cultivar 91N406; experiment: Direct shoot regeneration in leaf explants on MS medium with BA and NAA; format: cell-based; conditions: 91N406 explants; BA 4 μM
Excerpt: Table 12: Direct shoot regeneration in leaf explants (1-2 mm thick) of sugarcane cultivar 90N876 cultured on MS medium supplemented with 6-benzyladenine (BA) and α-napthaleneacetic acid (NAA) for 8 weeks. Thirty replicates, each with 10 explants cultured in top down orientation, were maintained for each treatment. Table 13: Direct shoot regeneration in leaf explants (1-2 mm thick) of sugarcane cultivar 91N406 cultured on MS medium supplemented with 6-benzyladenie (BA) and α-napthaleneacetic acid (NAA) for 8 weeks. Five replicates, each with 10 explants cultured in top down orientation were maintained for each treatment.
as §1
Murashige & Skoog (MS) nutrient formulation supplemented with 30 g/L sucrose and 7.5 g/L Difco agar were used as the basal culture medium. […]

O=C(O)COc1ccc(Cl)cc1Cl [2,4-D14]
Number of explants showing reg'n [1]: 0
Percentage of explants regenerating [1]: 0%

Nc1cc(Cl)cc(C(=O)O)c1Cl [AD, 3 amino-2,5-dichlorobenzoic acid]
morphological abnormalities in the regenerated plants [2]: developed albinos occasionally

c1coc(CNc2ncnc3[nH]cnc23)c1 [KIN, kinetin]
optimal concentration of cytokinin for shoot regeneration [3]: 4 µM
effect on shoot regeneration ([4]; added after the initial embryo formation): enhanced

O=C(O)Cc1cccc2ccccc12 [NAA, α-napthaleneacetic acid]
optimal concentration of NAA for shoot regeneration [5]: 40 µM

COc1c(Cl)ccc(Cl)c1C(=O)O [dicamba]
regeneration with other hormone combinations [4]: unsucessful
callus growth ([4]; sorghum cultures containing dicamba): some callus growth was seen

Nc1c(Cl)c(Cl)nc(C(=O)O)c1Cl [picloram]
regeneration with other hormone combinations [4]: unsucessful

O=C(Nc1ccccc1)Nc1cnns1 [thidiazuron]
regeneration with other hormone combinations [4]: unsucessful
